Results on one substance are retold here after patent US20260248731A1, “NON-VIRAL DELIVERY OF SMALL MOLECULE THERAPEUTICS” (BATTELLE MEMORIAL INSTITUTE, priority 2022, published 2026).

In data set [1] the test system is RAW264.7 cells. Kind of data set: Cytokine release from RAW264.7 cells, multiplex cytometric bead array. Particulars: 24 hours after treatment. The format is cell-based, murine. As for the experimental part: Talabostat mesylate (MedChemExpress; TLBST) was reconstituted to 10 mg/mL in deionized water and stored frozen. Prior to use, TLBST was thawed, incubated at 37° C. for 20 mins, and sonicated for 10 minutes. TLBST was serially diluted in pH 7.4, 40 mM Tris, 10 mM MgCl2 buffer to 5 mg/mL and 2.5 mg/mL. Free talabostat controls were prepared in triplicate by diluting and serially diluting the 10, 5, and 2.5 mg/mL TLBST stock in pH 7.4, 40 mM Tris-HCl, 10 mM MgCl2 buffer to generate free TLBST at 1.25, 0.625, and 0.3125 mg/mL. […]
RAW264.7 cells were seeded at 100,000 cells per well of a 96-well plate. […] Twenty-four hours following stimulation, cell culture supernatants were harvested and stored frozen until quantification of lactate dehydrogenase (LDH) by colorimetric enzymatic activity assay, and interleukin 1β (IL-1β), interleukin 18 (IL-18), and interferon β (IFNβ) by multiplex cytometric bead array assay. Percentage LDH release was calculated relative to the maximum LDH released from a lysed cells control. […] MTT signal derived from stimulated cells was quantified by colorimetric enzymatic activity assay. Percentage viability was calculated relative to the MTT signal measured in an untreated cells control. […]

The test system of data set [2] is macrophage-differentiated THP-1 cells. Particulars: background statement; cited from earlier work.
Data set [3] relates to murine cancer models. Particulars: systemic administration; cited from earlier work.
Data set [4] relates to macrophage-differentiated THP-1 cells. The note with it: background statement; cited from earlier work. The source holds these as a separate data set.

Turning to Talabostat mesylate [Free TLBST], in data set [1], the “IFNβ in the supernatant” value is “but not free TLBST is associated with IFNβ secretion”. Moreover, the cytotoxicity entry in data set [2] is “exhibit both cytotoxicity and IL-1β release”. Further, in data set [3], the “protection in murine cancer models” value was “potent T and NK cell-dependent protection”. In data set [4], the IL-1β release entry is “exhibit both cytotoxicity and IL-1β release”.
